Experimental data reported in PubChem BioAssay AID788 (SRMLSC, 2007).
Active and inactive are the calls of the source. No rule for the calls is given here.

Legend:
[1] = tested on: S. cerevisiae wild-type background strain growth inhibition; assay: growth inhibition of vps1Δ apl2Δ yeast, dose response, post-Golgi transport modulator project, S. cerevisiae, background strain comparison (AID 788); conditions: S. cerevisiae vps1Δ apl2Δ growth inhibition, dose response; measured here: wild-type background strain growth
[2] = tested on: S. cerevisiae vps1Δ apl2Δ growth inhibition, dose response; assay: as above

**Q.** With `CC(=O)c1cnc2nc(C)nn2c1C` as the compound, how does the IC50 [1] read?
**A.** Its IC50 is > 10 µM.

**Q.** What about the IC50 [2] of the same compound?
**A.** Its IC50 is > 10 µM (inactive).

**Q.** Which IC50 [1] does the source give for `N=c1nc(N)nc2n1NC(c1ccc(F)cc1)=CS2` here?
**A.** The IC50 was > 10 µM.

**Q.** What about the IC50 [2] of the same compound?
**A.** The IC50 was > 10 µM (inactive).

**Q.** Which IC50 [1] does the source give for `O=C(NCCc1ccccc1)C1CCN(S(=O)(=O)N2CCCC2)CC1` here?
**A.** Its IC50 is > 10 µM.

**Q.** What about the IC50 [2] of the same compound?
**A.** Its IC50 is > 10 µM (inactive).

**Q.** What does the source list for `COc1ccc(C(=O)Nc2ccc(Cl)cc2C(=O)N2CCCC(C)C2)cc1` (stereo unspecified)?
**A.** IC50 [1]: > 10 µM; IC50 [2]: > 10 µM (inactive)

**Q.** For `O=C(C1CCCN(S(=O)(=O)c2ccc(Cl)cc2)C1)N(Cc1cccs1)C1CC1` (stereo unspecified), which IC50 [2] is on record?
**A.** The IC50 was > 10 µM (inactive).

**Q.** What does the source list for `O=C(OCn1ncc(Cl)c(Cl)c1=O)c1ccccc1Cl`?
**A.** IC50 [1]: 16.6 µM; IC50 [2]: 15.5 µM

**Q.** With `CCCn1nc([N+](=O)[O-])c(C(C#N)c2nc3ccccc3s2)c(Cl)c1=O` (stereo unspecified) as the compound, how does the IC50 [1] read?
**A.** Its IC50 is 2.16 µM.

**Q.** And the IC50 [2]?
**A.** Its IC50 is 5.34 µM (inactive).

**Q.** With `O=C(NC1CCN(Cc2ccccc2)CC1)C1COc2ccccc2O1` (stereo unspecified) as the compound, how does the IC50 [1] read?
**A.** Its IC50 is > 10 µM.

**Q.** For `CC(C)Oc1ccc(/C(O)=C2/C(=O)C(=O)N(CCN(C)C)C2c2ccco2)cc1` (stereo unspecified), which IC50 [1] is on record?
**A.** The IC50 was > 10 µM.

**Q.** What about the IC50 [2] of the same compound?
**A.** The IC50 was > 10 µM (inactive).

**Q.** With `N#CC1=C2SCC(O)(c3ccccc3)N2C(=O)CC1c1ccccc1` (stereo unspecified) as the compound, how does the IC50 [1] read?
**A.** Its IC50 is > 10 µM.

**Q.** And the IC50 [2]?
**A.** Its IC50 is > 10 µM (inactive).

**Q.** `N[C@@H](Cc1c[nH]c2ccccc12)c1nnc(SCc2ccc(Cl)cc2)o1` was tested. Which IC50 [1] did it give?
**A.** The IC50 was 20.4 µM.

**Q.** And the IC50 [2]?
**A.** The IC50 was 24.8 µM (inactive).

**Q.** Which IC50 [1] does the source give for `O=C(Cc1cccs1)Nc1nc2c(s1)CCCC2` here?
**A.** Its IC50 is > 10 µM.

**Q.** And the IC50 [2]?
**A.** The IC50 was > 10 µM (inactive).

**Q.** For `O=C(O)c1ccc(N2CCCCC2)cc1`, which IC50 [1] is on record?
**A.** The IC50 was > 10 µM.

**Q.** What about the IC50 [2] of the same compound?
**A.** The IC50 was > 10 µM (inactive).

**Q.** Which IC50 [1] does the source give for `CCCCOc1ccc(-c2ncc(C(=O)O)c(C)n2)cc1` here?
**A.** Its IC50 is > 10 µM.

**Q.** What about the IC50 [2] of the same compound?
**A.** The IC50 was > 10 µM (inactive).

**Q.** Which IC50 [1] does the source give for `Cc1ccc(C2(C(F)(F)F)N=C3Sc4cc(C)cc(C)c4N3C(=O)N2)cc1` (stereo unspecified) here?
**A.** Its IC50 is 1.08 µM.

**Q.** What about the IC50 [2] of the same compound?
**A.** The IC50 was 1.5 µM (inactive).

**Q.** For `C/C(=N\N=C(/N)SC1CC(=O)N(c2ccc(Cl)c(Cl)c2)C1=O)c1cccs1` (stereo unspecified), which IC50 [1] is on record?
**A.** The IC50 was 5.98 µM.

**Q.** What about the IC50 [2] of the same compound?
**A.** Its IC50 is 5.05 µM.

**Q.** For `O=C(COc1ccc(Cl)cc1Cl)NCCCN1CCOCC1`, which IC50 [1] is on record?
**A.** The IC50 was > 10 µM.

**Q.** What about the IC50 [2] of the same compound?
**A.** The IC50 was 20.8 µM.

**Q.** Which IC50 [1] does the source give for `CS(=O)(=O)N1CCC(C(=O)NCCN2CCN(Cc3ccccc3)CC2)CC1` here?
**A.** Its IC50 is > 10 µM.

**Q.** What about the IC50 [2] of the same compound?
**A.** The IC50 was > 10 µM (inactive).

**Q.** Which IC50 [1] does the source give for `COc1cccc(-c2cc(C(=O)N3CCN(C(c4ccccc4)c4ccccc4)CC3)no2)c1` here?
**A.** Its IC50 is > 10 µM.

**Q.** What about the IC50 [2] of the same compound?
**A.** Its IC50 is > 10 µM (inactive).

**Q.** How did the IC50 [1] turn out when `COc1ccccc1N1CCN(CC(O)c2ccc3cc[nH]c3c2)CC1` (stereo unspecified) was run?
**A.** Its IC50 is > 10 µM.

**Q.** What about the IC50 [2] of the same compound?
**A.** Its IC50 is > 10 µM (inactive).

**Q.** What does the source list for `O=C(c1ccco1)N1CCN(c2ncnc3c2[nH]c2ccccc23)CC1`?
**A.** IC50 [1]: > 10 µM; IC50 [2]: > 10 µM (inactive)

**Q.** What does the source list for `O=C(NCc1ccccc1)NS(=O)(=O)c1ccccc1Cl`?
**A.** IC50 [1]: > 10 µM; IC50 [2]: > 10 µM (inactive)

**Q.** `CC(Sc1ccsc1[N+](=O)[O-])C(=O)NCCc1ccc(Cl)cc1` (stereo unspecified) was tested. Which IC50 [2] did it give?
**A.** The IC50 was > 10 µM (inactive).

**Q.** For `O=C1c2ccccc2C(=O)c2c1oc(C(F)(F)F)c2C(=O)c1ccccc1`, which IC50 [1] is on record?
**A.** The IC50 was 2.2 µM.

**Q.** What about the IC50 [2] of the same compound?
**A.** The IC50 was 2.92 µM (inactive).

**Q.** How did the IC50 [1] turn out when `CCC(=O)c1ccc(N2CCN(C(=O)c3ccc(Br)cc3)CC2)c(F)c1` was run?
**A.** Its IC50 is > 10 µM.

**Q.** And the IC50 [2]?
**A.** The IC50 was 25 µM.

**Q.** With `O=c1cccc2n1CC1CC2CN(S(=O)(=O)c2ccccc2)C1` (stereo unspecified) as the compound, how does the IC50 [1] read?
**A.** Its IC50 is > 10 µM.

**Q.** What about the IC50 [2] of the same compound?
**A.** The IC50 was > 10 µM (inactive).

**Q.** For `Cc1ccc(NS(=O)(=O)c2cc(C(=O)N3CCOCC3)ccc2C)cc1`, which IC50 [1] is on record?
**A.** Its IC50 is > 10 µM.

**Q.** What about the IC50 [2] of the same compound?
**A.** The IC50 was > 10 µM (inactive).

**Q.** How did the IC50 [1] turn out when `CCC(C)c1ccc(OCCCCN2CCOCC2)cc1` (stereo unspecified) was run?
**A.** The IC50 was > 10 µM.

**Q.** What about the IC50 [2] of the same compound?
**A.** The IC50 was 4.71 µM.

**Q.** Which IC50 [1] does the source give for `CCN1C(=O)c2ccc(C(=O)NCc3ccccc3)cc2C1=O` here?
**A.** Its IC50 is > 10 µM.

**Q.** What about the IC50 [2] of the same compound?
**A.** The IC50 was > 10 µM (inactive).

**Q.** With `Cn1c(=O)cc(NCc2ccccc2)[nH]c1=O` as the compound, how does the IC50 [1] read?
**A.** Its IC50 is > 10 µM.

**Q.** What about the IC50 [2] of the same compound?
**A.** The IC50 was > 10 µM (inactive).

**Q.** With `Clc1cc(Br)ccc1OCCOCCN1CCOCC1` as the compound, how does the IC50 [1] read?
**A.** The IC50 was > 10 µM.

**Q.** What about the IC50 [2] of the same compound?
**A.** The IC50 was 20.3 µM.

**Q.** Which IC50 [1] does the source give for `O=C(Cn1nnc(-c2ccc(S(=O)(=O)N3CCCC3)cc2)n1)NCC1CCCO1` (stereo unspecified) here?
**A.** The IC50 was > 10 µM.

**Q.** And the IC50 [2]?
**A.** Its IC50 is > 10 µM (inactive).

**Q.** What does the source list for `O=C(Nc1nnc(C2CC2)o1)c1ccc(S(=O)(=O)N2CCCc3ccccc32)cc1`?
**A.** IC50 [1]: 3.17 µM; IC50 [2]: > 10 µM (inactive)

**Q.** With `O=C1CC(N2CCN(c3ccc(Cl)c(Cl)c3)CC2)C(=O)N1` (stereo unspecified) as the compound, how does the IC50 [1] read?
**A.** Its IC50 is > 10 µM.

**Q.** And the IC50 [2]?
**A.** The IC50 was > 10 µM (inactive).

**Q.** How did the IC50 [1] turn out when `CCCc1cc(NCCCCO)n2c(nc3ccccc32)c1C#N` was run?
**A.** The IC50 was > 10 µM.

**Q.** And the IC50 [2]?
**A.** The IC50 was > 10 µM (inactive).

**Q.** Which IC50 [1] does the source give for `FC(F)(F)COc1nc(N2CCCCC2)nc(N2CCNCC2)n1` here?
**A.** The IC50 was > 10 µM.

**Q.** And the IC50 [2]?
**A.** The IC50 was > 10 µM (inactive).

**Q.** With `CCOC(=O)c1c(-n2c(C)cc(C=C3C(=O)NC(=S)NC3=O)c2C)sc2c1CCCC2` as the compound, how does the IC50 [1] read?
**A.** Its IC50 is 11.5 µM.

**Q.** And the IC50 [2]?
**A.** The IC50 was > 10 µM (inactive).
